This note sets out measurements from patent US20250041438A1, “ANTIBODY-DRUG CONJUGATE” (NOVELTY NOBILITY INC., priority 2022, published 2025).

One test relates to GIST-430/654 cells. Put plainly: In vivo efficacy against imatinib-resistant GIST, GIST-430/654 cell xenograft model. On the set-up: species or system mice. To be noted: day 49; imatinib 100 mg/kg p.o.
The next test relates to SCLC-H526 cells. The experiment in a line: In vivo efficacy against SCLC, SCLC-H526 xenograft model. Also noted: species or system mice. As to conditions: day 21; imatinib 100 mg/kg p.o. The protocol: In order to evaluate the efficacy of ADC substances against SCLC, an experiment was performed. The SCLC-H526 (NCI-H526, stage E, carcinoma; variant small cell lung cancer, c-Kit overexpression) xenograft model was used.

A further test deals with HMC 1.2 cells. The experiment in a line: In vivo efficacy against mast cell tumor, HMC 1.2 xenograft model. On the set-up: species or system mice. As to conditions: day 17; imatinib 100 mg/kg p.o.
In a further test the test system is Kasumi-1 cells. The experiment in a line: In vivo efficacy against AML, Kasumi-1 xenograft model. Also noted: species or system mice. As to conditions: day 17; imatinib 100 mg/kg p.o. The protocol: The experiment was performed in the same manner as in Example 5, except that Kasumi-1 cells (3×10^6/100 […]/head/serum free, RPMI1640 medium) in 50% Matrigel (Corning, 354248, NY, USA) were used. The mice were enrolled in this study on day 29 after transplantation, and the average tumor volume was about 170 mm^3 (day 0).

A further test has as its system GIST-T1 cells. It counts as in vivo. As to conditions: imatinib 100 mg/kg p.o. D0-D29.

Take `Cc1ccc(NC(=O)c2ccc(CN3CCN(C)CC3)cc2)cc1Nc1nccc(-c2cccnc2)n1` [imatinib, reference compound]: the “tumor growth inhibition compared to the control (vehicle), in words” value in the test with GIST-430/654 cells, in the test with SCLC-H526 cells and in the test with Kasumi-1 cells was “little inhibition of tumor growth” in each case. The “tumor growth inhibition, in words” value with HMC 1.2 cells is on record as “little inhibition of tumor growth”. For the same compound, the “tumor weight after sacrifice, decrease compared to the control (vehicle)” value with GIST-T1 cells is “about 59%”.
